In ChEMBL document CHEMBL1770132, “The discovery of high affinity agonists of GPR109a with reduced serum shift and improved ADME properties” (Bioorg Med Chem Lett, 2011):

Assays:
Assay type in all cases: ADME, organism-based
[1] = Half life in plasma of C57BL/6 mouse at 1 mg/kg, iv and 2 mg/kg, po
[2] = Half life in plasma of C57BL/6 mouse
[3] = Plasma clearance in Sprague-Dawley rat
[4] = Half life in Sprague-Dawley rat; conditions: in vivo
[5] = Bioavailability in Sprague-Dawley rat at 1 mg/kg, iv and 2 mg/kg, po; conditions: in vivo
[6] = Plasma clearance in C57BL/6 mouse
[7] = Bioavailability in C57BL/6 mouse at 1 mg/kg, iv and 2 mg/kg, po; conditions: in vivo

Row | half-life [1] [min] | half-life [2] [min] | clearance [3] [mL/min/kg] | half-life [4] [min] | bioavailability [5] [%] | clearance [6] [mL/min/kg] | bioavailability [7] [%] | Structure (SMILES)
1 | 144 | – | – | – | – | – | – | O=C(CCc1ccc(-c2ccc(O)cc2)cc1)Nc1ccccc1C(=O)O
2 | – | 84 | 1 | 132 | 8.1 | – | – | O=C(CCc1nc(-c2ccc(O)cn2)no1)NC1=C(C(=O)O)CCCC1
3 | – | 270 | 0.7 | 138 | 2 | 2.5 | 9 | N[C@@H](Cc1nc(-c2ccc(O)cn2)no1)C(=O)NC1=C(C(=O)O)CCCC1
4 | – | 158 | – | – | – | 9.22 | 7.5 | C[C@@H]1CCC(C(=O)O)=C(NC(=O)[C@@H](N)Cc2nc(-c3ccc(O)cn3)no2)C1
5 | – | 336 | 0.7 | 330 | 81 | 1.7 | 100 | C[C@@H]1CCC(C(=O)O)=C(NC(=O)[C@@H](N)Cc2nc(-c3ccc(F)cn3)no2)C1
6 | – | 282 | – | – | – | 3.3 | 54 | C[C@@H]1CCC(C(=O)O)=C(NC(=O)CCc2nc(-c3ccc(F)cn3)no2)C1
